From patent US20100267561A1, “HERBICIDAL PYRIDAZINONE DERIVATIVES” (priority 2007, published 2010)

Legend:
Assay in all cases: Test B pre-/postemergence plant response
Format in all cases: in vivo
[1] = system: Italian ryegrass (Lolium multiflorum)
In short: (§1)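 Preemergence and postemergence (plants 2-18 cm, 1- to 4-leaf stage) applications used test chemicals in a non-phytotoxic solvent with surfactant. Plants were held in a greenhouse 13 to 15 days, then rated visually against controls on a 0-100 scale (0 no effect, 100 complete control).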

[2] = system: Russian thistle (Salsola iberica); details: Preemergence; for Russian Thistle plant response rating: scale 0 to 100
In short: as §1

[3] = system: common (oilseed) sunflower (Helianthus annuus); details: Preemergence; for Sunflower plant response rating: scale 0 to 100
In short: as §1

[4] = system: common ragweed (Ambrosia elation)
In short: as §1

[5] = system: corn (Zea mays)
In short: as §1

[6] = system: eastern black (E.B.) nightshade (Solanum ptycanthum); details: Preemergence; for Nightshade, E. B. plant response rating: scale 0 to 100
In short: as §1

[7] = system: giant foxtail (Setaria faberii)
In short: as §1

[8] = system: goosegrass (Eleusine indica)
In short: as §1

[9] = system: green foxtail (Setaria viridis)
In short: as §1

[10] = system: johnsongrass (Sorghum halepense)
In short: as §1

[11] = system: kochia (Kochia scoparia); details: for Kochia plant response rating: postemergence, 0-100 scale; for Plant response rating, Kochia: Postemergence
In short: as §1

[12] = system: pigweed (Amaranthus retroflexus)
In short: as §1

[13] = system: surinam grass (Brachiaria decumbens)
In short: as §1

[14] = system: yellow nutsedge (Cyperus esculentus)
In short: as §1

[15] = 8 g ai/ha, postemergence, 0-100 scale
[16] = 16 g ai/ha, postemergence, 0-100 scale
[17] = Postemergence, 31 g ai/ha, scale 0 to 100
[18] = Postemergence, 62 g ai/ha, scale 0 to 100, 0 no effect, 100 complete control
[19] = Preemergence, 31 g ai/ha, scale 0 to 100 (0 no effect, 100 complete control)
[20] = Preemergence, 62 g ai/ha, 0 to 100 scale, 0 no effect, 100 complete control
[21] = Preemergence, 8 g ai/ha, scale 0 to 100
[22] = Preemergence, 16 g ai/ha, scale 0 to 100
[23] = 31 g ai/ha, scale 0 to 100 (0 no effect, 100 complete control)
[24] = 62 g ai/ha, 0 to 100 scale, 0 no effect, 100 complete control
[25] = Postemergence, 16 g ai/ha, scale 0 to 100

CCCc1cc(-c2ccc(Cl)cc2)nn1-c1c(O)cnn(C)c1=O [Compound 76]
Ryegrass, Italian plant response rating [1, 15]: 65
Ryegrass, Italian plant response rating [1, 16]: 98
Plant response rating, Ryegrass, Italian [1, 17]: 100
Plant response rating, Ryegrass, Italian [1, 18]: 100
Plant response rating, Ryegrass, Italian [1, 19]: 95
Plant response rating, Ryegrass, Italian [1, 20]: 95
Ryegrass, Italian plant response rating [1, 21]: 75
Ryegrass, Italian plant response rating [1, 22]: 75
Plant response rating, Russian Thistle [2, 23]: 0
Plant response rating, Russian Thistle [2, 24]: 0
Russian Thistle plant response rating ([2]; 8 g ai/ha): 0
Russian Thistle plant response rating ([2]; 16 g ai/ha): 0
Plant response rating, Sunflower [3, 23]: 0
Plant response rating, Sunflower [3, 24]: 0
Sunflower plant response rating ([3]; 8 g ai/ha): 0
Sunflower plant response rating ([3]; 16 g ai/ha): 0
Ragweed plant response rating [4, 15]: 0
Ragweed plant response rating [4, 16]: 0
Plant response rating, Ragweed [4, 17]: 0
Plant response rating, Ragweed [4, 18]: 0
Plant response rating, Ragweed [4, 19]: 0
Plant response rating, Ragweed [4, 20]: 0
Ragweed plant response rating [4, 21]: 0
Ragweed plant response rating [4, 22]: 0
Corn plant response rating [5, 15]: 75
Plant response rating, Corn [5, 25]: 85
Plant response rating, Corn [5, 17]: 100
Plant response rating, Corn [5, 18]: 100
Plant response rating, Corn [5, 19]: 75
Plant response rating, Corn [5, 20]: 85
Corn plant response rating [5, 21]: 0
Corn plant response rating [5, 22]: 55
Plant response rating, Nightshade, E. B. [6, 23]: 0
Plant response rating, Nightshade, E. B. [6, 24]: 0
Nightshade, E. B. plant response rating ([6]; 8 g ai/ha): 0
Nightshade, E. B. plant response rating ([6]; 16 g ai/ha): 0
Foxtail, Giant plant response rating [7, 15]: 75
Plant response rating, Foxtail, Giant [7, 25]: 85
Plant response rating, Foxtail, Giant [7, 17]: 95
Plant response rating, Foxtail, Giant [7, 18]: 98
Plant response rating, Foxtail, Giant [7, 19]: 90
Plant response rating, Foxtail, Giant [7, 20]: 100
Foxtail, Giant plant response rating [7, 21]: 0
Foxtail, Giant plant response rating [7, 22]: 70
Goosegrass plant response rating [8, 15]: 20
Goosegrass plant response rating [8, 16]: 60
Plant response rating, Goosegrass [8, 17]: 70
Plant response rating, Goosegrass [8, 18]: 75
Plant response rating, Goosegrass [8, 19]: 80
Plant response rating, Goosegrass [8, 20]: 100
Goosegrass plant response rating [8, 21]: 20
Goosegrass plant response rating [8, 22]: 75
Foxtail, Green plant response rating [9, 15]: 65
Plant response rating, Foxtail, Green [9, 25]: 85
Plant response rating, Foxtail, Green [9, 17]: 95
Plant response rating, Foxtail, Green [9, 18]: 100
Plant response rating, Foxtail, Green [9, 19]: 90
Plant response rating, Foxtail, Green [9, 20]: 90
Foxtail, Green plant response rating [9, 21]: 40
Foxtail, Green plant response rating [9, 22]: 65
Johnsongrass plant response rating [10, 15]: 65
Johnsongrass plant response rating [10, 16]: 75
Plant response rating, Johnsongrass [10, 17]: 95
Plant response rating, Johnsongrass [10, 18]: 98
Plant response rating, Johnsongrass [10, 19]: 70
Plant response rating, Johnsongrass [10, 20]: 85
Johnsongrass plant response rating [10, 21]: 0
Johnsongrass plant response rating [10, 22]: 0
Kochia plant response rating ([11]; 8 g ai/ha): 0
Kochia plant response rating ([11]; 16 g ai/ha): 0
Plant response rating, Kochia ([11]; 31 g ai/ha, scale 0 to 100): 0
Plant response rating, Kochia ([11]; 62 g ai/ha, scale 0 to 100, 0 no effect, 100 complete control): 0
Pigweed plant response rating [12, 15]: 0
Pigweed plant response rating [12, 16]: 0
Plant response rating, Pigweed [12, 17]: 0
Plant response rating, Pigweed [12, 18]: 0
Plant response rating, Pigweed [12, 19]: 0
Plant response rating, Pigweed [12, 20]: 0
Pigweed plant response rating [12, 21]: 0
Pigweed plant response rating [12, 22]: 0
Surinam Grass plant response rating [13, 15]: 65
Surinam Grass plant response rating [13, 16]: 90
Plant response rating, Surinam Grass [13, 17]: 100
Plant response rating, Surinam Grass [13, 18]: 100
Plant response rating, Surinam Grass [13, 19]: 95
Plant response rating, Surinam Grass [13, 20]: 100
Surinam Grass plant response rating [13, 21]: 65
Surinam Grass plant response rating [13, 22]: 90
Nutsedge, Yellow plant response rating [14, 15]: 0
Nutsedge, Yellow plant response rating [14, 16]: 0
Plant response rating, Nutsedge, Yellow [14, 17]: 0
Plant response rating, Nutsedge, Yellow [14, 18]: 0
Plant response rating, Nutsedge, Yellow [14, 19]: 100
Plant response rating, Nutsedge, Yellow [14, 20]: 100
Nutsedge, Yellow plant response rating [14, 21]: 100
Nutsedge, Yellow plant response rating [14, 22]: 100
